Data on 9 molecules can be found in patent US20110065632A1, “PHARMACEUTICAL COMPOSITIONS OF SOMATOSTATIN-DOPAMINE CONJUGATES” (priority 2008, published 2011).

The target of one test is T1, hUTII (Homo sapiens, UniProt Q9UKP6).
T1 sequence (Q9UKP6 1-389): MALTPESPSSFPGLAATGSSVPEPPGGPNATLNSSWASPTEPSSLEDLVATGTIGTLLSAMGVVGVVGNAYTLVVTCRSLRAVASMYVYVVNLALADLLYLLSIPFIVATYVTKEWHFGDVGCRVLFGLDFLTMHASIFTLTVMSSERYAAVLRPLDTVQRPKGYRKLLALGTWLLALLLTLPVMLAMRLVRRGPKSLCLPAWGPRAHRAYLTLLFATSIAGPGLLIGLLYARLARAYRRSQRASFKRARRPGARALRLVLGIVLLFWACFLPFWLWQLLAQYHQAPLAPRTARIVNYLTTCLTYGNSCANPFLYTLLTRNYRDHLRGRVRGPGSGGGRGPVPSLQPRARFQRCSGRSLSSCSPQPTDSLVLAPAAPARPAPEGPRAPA
Description: hUTII inhibition constant. The class given is binding. To be noted: read-out: hUTII Ki. How it is done: (§1) Using the discussed assays, the inhibition constants (Ki) for the five human somatostatin receptors (hSSTR1-hSSTR5) and the dopamine-2 receptor (hUTII and hDA2) were measured for the exemplified somatostatin-dopamine conjugates, as follows: […]

The target of a further test is T2, hsst1 (Homo sapiens, UniProt P30872).
T2 construct: expressed in transfected cells
T2 sequence (P30872 whole entry): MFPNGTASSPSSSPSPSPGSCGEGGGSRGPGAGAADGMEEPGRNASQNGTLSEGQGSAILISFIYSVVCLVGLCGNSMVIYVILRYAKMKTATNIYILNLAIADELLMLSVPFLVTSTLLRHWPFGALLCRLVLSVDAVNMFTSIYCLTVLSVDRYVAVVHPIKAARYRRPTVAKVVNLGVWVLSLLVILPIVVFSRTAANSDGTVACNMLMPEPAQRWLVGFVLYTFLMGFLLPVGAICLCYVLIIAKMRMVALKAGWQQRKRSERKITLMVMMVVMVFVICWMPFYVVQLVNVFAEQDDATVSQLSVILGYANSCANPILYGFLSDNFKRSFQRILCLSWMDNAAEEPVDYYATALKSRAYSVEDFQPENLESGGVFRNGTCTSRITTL
Description: Somatostatin receptor radioligand binding assay, hsst1. How it is done: Specificity and selectivity of the somatostatin analogues used to synthesize the somatostatin-dopamine chimers were determined by a radioligand binding assay on CHO-K1 cells stably transfected with each of the SSTR subtypes, as follows. Somatostatin analogs are also described in U.S. Patent Application Publication No. 02210006790. The complete coding sequences of genomic fragments of the SSTR 1 (e.g., Genbank accession No. M81829), SSTR 2 (e.g., Genbank accession No. M81830), SSTR 3 (e.g., Genbank accession No. L07062), and SSTR 4 (e.g., Genbank accession No. AL049651) genes and a cDNA clone for SSTR 5 (e.g., Genbank accession No. D16827) was subcloned into the mammalian expression vector pCMV (Life Technologies, Milano, Italy). Other SSTR sequences are known to the skilled artisan. Clonal cell lines stably expressing SSTR's 1-5 were obtained by transfection into CHO-K1 cells (ATCC, Manassas, Va., USA) using the calcium phosphate co-precipitation method (Davis L, et al., 1994 In: Basic methods in Molecular Biology, 2nd edition, Appleton & Lange, Norwalk, Conn., USA: 611-646). The plasmid pRSV-neo (ATCC) was included as a selectable marker. Clonal cell lines were selected in RPMI 1640 media containing 0.5 mg/mL of G418 (Life Technologies, Milano, Italy), ring cloned, and expanded into culture.
Membranes for in vitro receptor binding assays were obtained by homogenizing the CHO-K1 cells expressing the SSTR's subtypes in ice-cold 50 mM Tris-HCl and centrifuging twice at 39,000 g (10 min), with an intermediate resuspension in fresh buffer. The final pellets were resuspended in 10 mM Tris-HCl for assay.
For the SSTR 1, 3, 4, and 5 assays, aliquots of the membrane preparations were incubated 90 minutes at 25° C. with 0.05 nM [^125I-Tyr11]SS-14 in 50 mM HEPES (pH 7.4) containing 10 mg/mL BSA, 5 mM MgCl2, 200 KIU/mL Trasylol, 0.02 mg/mL bacitracin, and 0.02 mg/mL phenylmethylsuphonyl fluoride. The final assay volume was 0.3 mL.
For the SSTR 2 assay, 0.05 nM [^125I]MK-678 was employed as the radioligand and the incubation time was 90 minutes at 25° C. The incubations were terminated by rapid filtration through GF/C glass microfiber filters (Whatman Co.) (pre-soaked in 0.3% polyethylenimine) using a BRANDEL filtration manifold. Each tube and filter was washed three times with 5 mL aliquots of ice-cold buffer. Specific binding was defined as the total radioligand bound minus that bound in the presence of 1000 nM SS-14 for SSTR 1, 3, 4, and 5, or 1000 nM MK-678 for SSTR2.
as §1

The next test concerns the target T3, hsst3 (Homo sapiens, UniProt P32745).
T3 construct: expressed in transfected cells
The experiment in a line: Somatostatin receptor radioligand binding assay, hsst3. The method, boiled down:
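Membranes from CHO-K1 cells stably transfected with each human SSTR subtype, incubated 90 min at 25 °C with 0.05 nM [125I-Tyr11]SS-14 in 50 mM HEPES pH 7.4 with BSA, MgCl2 and protease inhibitors; filtration read-out. Nonspecific binding with 1000 nM SS-14; Ki values reported.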

A further test has as its target hDA2. The experiment in a line: Dopamine-2 receptor radioligand binding assay. Set-up: species or system human. Particulars: [3H]spiperone.
A further test addresses T4, hsst2 (Homo sapiens, UniProt P30874).
T4 construct: expressed in transfected cells
Description: Somatostatin receptor radioligand binding assay, hsst2. To be noted: CHO-K1 membranes, [125I]MK-678; read-out: hsst2 Ki. In outline: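 Membranes from CHO-K1 cells stably expressing human SSTR2, in 10 mM Tris-HCl, incubated 90 min at 25 °C with 0.05 nM [125I]MK-678. Bound ligand collected by filtration on PEI-soaked GF/C filters; nonspecific binding defined with 1000 nM MK-678.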

In another test the target is T5, hsst5 (Homo sapiens, UniProt P35346).
T5 construct: expressed in transfected cells
T5 sequence (P35346 whole entry): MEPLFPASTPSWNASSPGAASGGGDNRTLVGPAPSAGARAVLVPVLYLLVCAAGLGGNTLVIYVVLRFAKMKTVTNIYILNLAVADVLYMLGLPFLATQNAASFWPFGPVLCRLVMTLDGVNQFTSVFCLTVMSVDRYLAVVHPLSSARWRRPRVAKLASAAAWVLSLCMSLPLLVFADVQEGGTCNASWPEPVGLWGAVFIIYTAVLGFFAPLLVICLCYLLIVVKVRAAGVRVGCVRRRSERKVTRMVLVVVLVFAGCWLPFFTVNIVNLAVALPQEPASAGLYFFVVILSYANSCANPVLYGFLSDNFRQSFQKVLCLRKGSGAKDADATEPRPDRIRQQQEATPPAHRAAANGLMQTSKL
The experiment in a line: Somatostatin receptor radioligand binding assay, hsst5. Particulars: CHO-K1 membranes, [125I-Tyr11]SS-14. The method, boiled down:
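Membranes from CHO-K1 cells stably expressing hsst5, incubated 90 min at 25 °C with 0.05 nM [125I-Tyr11]SS-14 in 50 mM HEPES pH 7.4 with BSA, MgCl2 and protease inhibitors. Bound ligand collected by filtration. Non-specific binding defined with 1000 nM SS-14.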

The mark [1] stands for this setting: CHO-K1 membranes, [125I-Tyr11]SS-14, read-out: hsst1 Ki.
[2] abbreviates: CHO-K1 membranes, [125I-Tyr11]SS-14, read-out: hsst3 Ki.

pKi: −log10 of the molar value. Read-outs that look alike come from different tables or passages of the source. Numbered stars: 1 amine (or outer) side, 2 acyl side, 3 side chain; on linkers, the order of the positions; unused ones are H or OH. Bridge positions count the residues as written; N and C are the ends. Square brackets hold non-standard residues; d marks the D form. Peptide text beside a SMILES is read from it. * marks the point of attachment. X1 = CCCN1C[C@H](CSCC(=O)*)C[C@@H]2c3cccc4[nH]cc(c34)C[C@H]21; X2 = CN1C[C@H](CSCC(=O)*)C[C@@H]2c3cccc4[nH]cc(c34)C[C@H]21; Pipz(1-CH2CO,4-CH2CH2NH) = O=C(CN1CCN(CCN[*:1])CC1)[*:2]; Abu = CC[C@H](N)C(=O)O

T3 sequence (P32745 whole entry): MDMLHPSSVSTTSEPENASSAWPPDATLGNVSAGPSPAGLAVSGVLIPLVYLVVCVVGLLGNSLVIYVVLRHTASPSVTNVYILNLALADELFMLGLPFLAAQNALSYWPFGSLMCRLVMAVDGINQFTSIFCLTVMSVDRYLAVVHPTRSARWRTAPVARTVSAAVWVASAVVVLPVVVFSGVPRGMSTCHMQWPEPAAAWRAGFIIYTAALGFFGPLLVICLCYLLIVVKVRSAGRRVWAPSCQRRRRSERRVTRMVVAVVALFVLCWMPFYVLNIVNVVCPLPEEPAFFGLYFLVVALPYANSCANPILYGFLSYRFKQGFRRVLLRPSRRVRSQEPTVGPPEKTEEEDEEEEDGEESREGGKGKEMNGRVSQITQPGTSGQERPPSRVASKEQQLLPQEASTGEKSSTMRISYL
T4 sequence (P30874 whole entry): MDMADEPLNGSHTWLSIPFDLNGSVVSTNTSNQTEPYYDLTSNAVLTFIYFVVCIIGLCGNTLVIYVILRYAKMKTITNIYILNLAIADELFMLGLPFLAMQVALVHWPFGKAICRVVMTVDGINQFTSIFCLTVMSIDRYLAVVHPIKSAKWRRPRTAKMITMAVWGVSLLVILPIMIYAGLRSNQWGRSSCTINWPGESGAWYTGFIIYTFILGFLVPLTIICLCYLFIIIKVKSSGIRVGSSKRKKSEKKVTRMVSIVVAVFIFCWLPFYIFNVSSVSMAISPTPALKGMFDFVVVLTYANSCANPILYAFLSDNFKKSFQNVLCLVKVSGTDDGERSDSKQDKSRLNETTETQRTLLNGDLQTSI

For `CCNC(=O)N(CCCN(C)CC(=O)N[C@H](Cc1ccccc1)C(=O)N[C@H]1CSSC[C@@H](C(=O)N[C@H](C(N)=O)[C@@H](C)O)NC(=O)[C@H](CC)NC(=O)[C@H](CCCCN)NC(=O)[C@@H](Cc2c[nH]c3ccccc23)NC(=O)[C@H](Cc2ccc(O)cc2)NC1=O)C(=O)[C@H]1CN[C@@H]2Cc3c[nH]c4cccc(c34)[C@H]2C1` [Example 7], the negative-log Ki (pKi) on hUTII was 6.16; at hsst1 (setting [1]), 6.46; on hsst3 (setting [2]), 6.57; at hDA2, 6.71; on hsst2, 9.72; at hsst5 (read-out: hsst5 Ki), 7.54.
On to `CCCN1C[C@H](CSCC(=O)NCCOCCOCC(=O)N[C@H](Cc2ccccc2)C(=O)N[C@H]2CSSC[C@@H](C(=O)N[C@H](C(N)=O)[C@@H](C)O)NC(=O)[C@H](CC)NC(=O)[C@H](CCCCN)NC(=O)[C@@H](Cc3c[nH]c4ccccc34)NC(=O)[C@H](Cc3ccc(O)cc3)NC2=O)C[C@@H]2c3cccc4[nH]cc(c34)C[C@H]21` [Example 8], for which the negative logarithm of the Ki (pKi) is 6.78 at hUTII; 5.81 at hsst1 (setting [1]); 6.90 on hsst3 (setting [2]); 7.07 on hDA2; 9.96 at hsst2; 7.61 on hsst5 (read-out: hsst5 Ki).
As for `CCCN1C[C@H](CSCC(=O)NCCCC[C@H](NC(=O)CSC[C@@H]2C[C@@H]3c4cccc5[nH]cc(c45)C[C@H]3N(CCC)C2)C(=O)N[C@H]2CSSC[C@@H](C(=O)N[C@H](C(N)=O)[C@@H](C)O)NC(=O)[C@H](CC)NC(=O)[C@H](CCCCN)NC(=O)[C@@H](Cc3c[nH]c4ccccc34)NC(=O)[C@H](Cc3ccc(O)cc3)NC2=O)C[C@@H]2c3cccc4[nH]cc(c34)C[C@H]21` [Example 9], the pKi on hUTII is 6.20; at hsst1 it was 6.56; on hsst3, 6.27; on hDA2, 8.08; on hsst2, 9.27; on hsst5 (hsst5 Ki) it was 7.00.
Regarding `CCCN1C[C@H](CSCC(=O)NCCCC[C@H](NC(=O)CSC[C@@H]2C[C@@H]3c4cccc5[nH]cc(c45)C[C@H]3N(CCC)C2)C(=O)N[C@H](Cc2ccc(O)cc2)C(=O)N[C@H](Cc2ccc(O)cc2)C(=O)N[C@H]2CSSC[C@@H](C(=O)N[C@H](C(N)=O)[C@@H](C)O)NC(=O)[C@H](CC)NC(=O)[C@H](CCCCN)NC(=O)[C@@H](Cc3c[nH]c4ccccc34)NC(=O)[C@H](Cc3ccc(O)cc3)NC2=O)C[C@@H]2c3cccc4[nH]cc(c34)C[C@H]21` [Example 10] (X1-K(X1)[dY][dY]CY[dW]K[Abu]CT-NH2; disulfide 4-9), the pKi on hUTII is 6.75; at hsst1 (setting [1]), 6.26; at hsst3 (setting [2]) it was 6.49; on hDA2, 8.09; at hsst2, 9.82; at hsst5 (read-out: hsst5 Ki), 7.58.
As for `CCCN1C[C@H](CSCC(=O)NCCCC[C@H](NC(C)=O)C(=O)N[C@H](Cc2ccc(O)cc2)C(=O)N[C@H](Cc2ccc(O)cc2)C(=O)N[C@H]2CSSC[C@@H](C(=O)N[C@H](C(N)=O)[C@@H](C)O)NC(=O)[C@H](CC)NC(=O)[C@H](CCCCN)NC(=O)[C@@H](Cc3c[nH]c4ccccc34)NC(=O)[C@H](Cc3ccc(O)cc3)NC2=O)C[C@@H]2c3cccc4[nH]cc(c34)C[C@H]21` [Example 11] (Ac-K(X1)[dY][dY]CY[dW]K[Abu]CT-NH2; disulfide 4-9), the pKi was 7.19 at hUTII; 6.36 on hsst1 (setting [1]); 6.79 on hsst3 (setting [2]); 6.92 on hDA2; 10.40 on hsst2; 8.05 at hsst5 (read-out: hsst5 Ki).
Regarding `CCCN1C[C@H](CSCC(=O)NCCN2CCN(CC(=O)N[C@H](Cc3ccccc3)C(=O)N[C@H]3CSSC[C@@H](C(=O)N[C@H](C(N)=O)[C@@H](C)O)NC(=O)[C@H](CC)NC(=O)[C@H](CCCCN)NC(=O)[C@@H](Cc4c[nH]c5ccccc45)NC(=O)[C@H](Cc4ccc(O)cc4)NC3=O)CC2)C[C@@H]2c3cccc4[nH]cc(c34)C[C@H]21` [Example 24], the negative-log Ki (pKi) on hUTII was 5.82; on hsst1 (setting [1]) it was 6.00; at hsst3 (setting [2]), 6.81; on hDA2 it was 6.85; on hsst2 it was 9.43; at hsst5 (read-out: hsst5 Ki), 7.62.
Consider `CC[C@@H]1NC(=O)[C@H](CCCCN)NC(=O)[C@@H](Cc2c[nH]c3ccccc23)NC(=O)[C@H](Cc2ccc(O)cc2)NC(=O)[C@@H](NC(=O)[C@@H](Cc2ccc(O)cc2)NC(=O)[C@@H](Cc2ccc(O)cc2)NC(=O)[C@H](CCCCN)NC(=O)CN2CCN(CCNC(=O)CN3CCN(CCNC(=O)CSC[C@@H]4C[C@@H]5c6cccc7[nH]cc(c67)C[C@H]5N(C)C4)CC3)CC2)CSSC[C@@H](C(=O)N[C@H](C(N)=O)[C@@H](C)O)NC1=O` [Example 28] (X2-[Pipz(1-CH2CO,4-CH2CH2NH)][Pipz(1-CH2CO,4-CH2CH2NH)]K[dY][dY]CY[dW]K[Abu]CT-NH2; disulfide 6-11), for which the pKi at hUTII was 6.25; on hsst1 it was 6.18; at hsst3, 6.81; on hDA2, 6.30; at hsst2, 9.96; at hsst5 (hsst5 Ki) it was 8.29.
Regarding `CC[C@@H]1NC(=O)[C@H](CCCCN)NC(=O)[C@@H](Cc2c[nH]c3ccccc23)NC(=O)[C@H](Cc2ccc(O)cc2)NC(=O)[C@@H](NC(=O)[C@@H](Cc2ccccc2)NC(=O)CSC[C@@H]2C[C@@H]3c4cccc5[nH]cc(c45)C[C@H]3N(C)C2)CSSC[C@@H](C(=O)N[C@H](C(N)=O)[C@@H](C)O)NC1=O` [Example 30], the pKi on hUTII was 6.21; on hsst1 (setting [1]), 6.16; on hsst3 (setting [2]), 7.31; at hDA2, 7.62; on hsst2 it was 9.82; on hsst5 (read-out: hsst5 Ki), 7.80.
Turning to `CCCN1C[C@H](CSCC(=O)N[C@H](Cc2ccccc2)C(=O)N[C@H]2CSSC[C@@H](C(=O)N[C@H](C(N)=O)[C@@H](C)O)NC(=O)[C@H](CC)NC(=O)[C@H](CCCCN)NC(=O)[C@@H](Cc3c[nH]c4ccccc34)NC(=O)[C@H](Cc3ccc(O)cc3)NC2=O)C[C@@H]2c3cccc4[nH]cc(c34)C[C@H]21` [Example 31], the negative logarithm of the Ki (pKi) on hUTII is 6.30; at hsst1 (setting [1]), 6.16; on hsst3 (setting [2]), 7.07; at hDA2, 7.59; at hsst2, 10.00; on hsst5 (read-out: hsst5 Ki), 7.64.
